Columns and labels:
Type in all cases: cell-based
D(4) dopamine receptor = biological target: T1, D(4) dopamine receptor (Homo sapiens, UniProt P21917); assay: Binding affinity at cloned human D4 dopamine receptor in CHO cells using [3H]-YM 09151 as radioligand
T1 sequence (P21917 whole entry): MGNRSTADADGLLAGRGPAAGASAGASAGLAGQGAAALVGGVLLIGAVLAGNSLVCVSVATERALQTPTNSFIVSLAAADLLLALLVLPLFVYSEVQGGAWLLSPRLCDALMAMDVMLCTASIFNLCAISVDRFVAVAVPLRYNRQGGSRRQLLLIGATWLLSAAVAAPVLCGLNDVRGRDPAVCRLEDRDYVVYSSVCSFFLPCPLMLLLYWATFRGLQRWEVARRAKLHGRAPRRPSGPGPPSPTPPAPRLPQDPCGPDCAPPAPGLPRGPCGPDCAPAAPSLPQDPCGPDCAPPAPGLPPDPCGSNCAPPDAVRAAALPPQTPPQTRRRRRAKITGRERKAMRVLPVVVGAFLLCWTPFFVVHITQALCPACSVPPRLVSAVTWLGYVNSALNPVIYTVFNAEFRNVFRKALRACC

D(3) dopamine receptor = D(3) dopamine receptor (Homo sapiens, UniProt P35462); assay: Binding affinity at cloned human D3 dopamine receptor in CHO cells using [3H]-YM 09151 as radioligand
Sequence of D(3) dopamine receptor (P35462 whole entry): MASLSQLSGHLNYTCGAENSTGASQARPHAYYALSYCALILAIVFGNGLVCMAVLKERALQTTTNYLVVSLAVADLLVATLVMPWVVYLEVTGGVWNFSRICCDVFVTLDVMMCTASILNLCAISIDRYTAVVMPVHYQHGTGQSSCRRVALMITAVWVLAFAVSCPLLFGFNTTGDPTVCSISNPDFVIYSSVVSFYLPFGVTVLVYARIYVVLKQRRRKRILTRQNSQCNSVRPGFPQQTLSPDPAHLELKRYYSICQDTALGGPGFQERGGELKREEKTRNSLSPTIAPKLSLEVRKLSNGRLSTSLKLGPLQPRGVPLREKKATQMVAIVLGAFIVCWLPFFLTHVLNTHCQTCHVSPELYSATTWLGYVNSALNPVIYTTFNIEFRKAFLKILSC

D(2) dopamine receptor = D(2) dopamine receptor (Homo sapiens, UniProt P14416); assay: Binding affinity at cloned human D2 dopamine receptor in CHO cells using [3H]-YM 09151 as radioligand
Sequence of D(2) dopamine receptor (P14416 whole entry): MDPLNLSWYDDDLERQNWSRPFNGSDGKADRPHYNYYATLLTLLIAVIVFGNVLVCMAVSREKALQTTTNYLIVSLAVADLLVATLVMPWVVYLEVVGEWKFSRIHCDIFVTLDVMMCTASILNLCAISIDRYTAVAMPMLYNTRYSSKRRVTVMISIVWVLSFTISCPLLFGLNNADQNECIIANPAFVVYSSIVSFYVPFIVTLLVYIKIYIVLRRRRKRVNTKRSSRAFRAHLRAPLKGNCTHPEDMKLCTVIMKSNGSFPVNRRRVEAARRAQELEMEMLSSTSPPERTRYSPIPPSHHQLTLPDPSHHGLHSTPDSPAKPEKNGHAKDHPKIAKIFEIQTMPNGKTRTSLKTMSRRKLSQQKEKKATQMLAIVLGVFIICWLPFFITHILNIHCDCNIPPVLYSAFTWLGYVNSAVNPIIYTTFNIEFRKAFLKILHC

Row | Ki (D(4) dopamine receptor) | Ki (D(3) dopamine receptor) | Ki (D(2) dopamine receptor) | SMILES
1 | 125 nM |  |  | c1ccc2c(c1)N=C(NCCCCCN1CCN(c3ccc4ccccc4n3)CC1)CO2
2 | 3 nM | > 1000 nM | 280 nM | COc1ccccc1N1CCN(CCCNC2=Nc3ccccc3OC2)CC1
